The source of these data is patent US5266578A, “Heterocyclically substituted quinolylmethoxy-phenylacetamides” (Bayer Aktiengesellschaft, priority 1991, dated 1993).

Each structure is given as a SMILES string.

This assay relates to 5-LO. The assay is described as follows: lipoxygenase inhibition: release of leukotriene B4 in polymorphonuclear human leukocytes (PMN) after addition of substances and Ca ionophore, reverse phase HPLC. It counts as cell-based. Particulars: LTB4 release. As to the method:
The pharmacological effects of the substances according to the invention are determined by the following method:
As a measure of the lipoxygenase inhibition, the release of leukotriene B4 (LTB.) in polymorphonuclear human leukocytes (PMN) was determined by addition of substances and Ca ionophore by means of reverse phase HPLC according to Borgeat, P. et al., Proc. Nat. Acad. Sci, 76, 2148-2152 (1979).
Table 1 lists by way of example the values obtained by this test for some compounds according to the invention: […]

What is called IC50 is the concentration that inhibits the measured activity by half. Lower therefore signals inhibition by little substance. With `O=C(Nc1ccccn1)C(c1ccc(OCc2ccc3ccccc3n2)cc1)C1CCCCCC1` (stereo not shown) [Example 1, N-(2-Pyridyl)-2-[4-(quinolin-2-yl-methoxy)phenyl]-2-cycloheptyl-acetamide], the IC50 is 500 nM.

With `O=C(Nc1nnn[nH]1)C(c1ccc(OCc2ccc3ccccc3n2)cc1)C1CCCCCC1` (stereo not shown) [Example 2, N-(5-Tetrazolyl)-2-[4-(quinoline-2-yl-methoxy)phenyl]-2-cycloheptyl-acetamide], it took 260 nM to reach half-maximal inhibition (IC50).

Turning to `O=C(NC1=NCCS1)C(c1ccc(OCc2ccc3ccccc3n2)cc1)C1CCCCCC1` (stereo not shown) [Example 3, N-(2-Thiazolinyl)-2-[4-(quinolin-2-yl-methoxy)phenyl]-2-cycloheptyl-acetamide], the IC50 amounted to 290 nM.

For `O=C(Nc1nccs1)C(c1ccc(OCc2ccc3ccccc3n2)cc1)C1CCCCCC1` (stereo not shown) [Example 4, N-(2-Thiazolyl)-2-[4-(quinolin-2-yl-methoxy)phenyl]-2-cycloheptyl-acetamide], the IC50 is 430 nM. The IC50 values of the last two compounds are within 1.5-fold of each other.
